Data: patent US20110250254A1, “ANTIMICROBIAL COMPOSITIONS AND USES” (priority 2008, published 2011)
Read-outs that look alike come from different tables or passages of the source.

Key:
Format in all cases: cell-based
S. epidermidis [1] = test: Static biofilm model on coated glass vials; conditions: incubation time 5 h, coating on glass vial
Description: The materials of Example 3 were tested in a static biofilm model as follows.
Triplicate samples of a coating composition were applied to a glass vial in accordance with Table 2 set out below where each vial is given a number. Vials 1 to 12 are each loaded with 13 mg of the indicated material, followed by the addition of 1.0 mL dichloromethane. The dichloromethane was slowly evaporated under atmospheric pressure to leave a coating on the internal walls of the receptacles. Vials 13 to 18 were each loaded by adding 10 mg of the indicated material pre-dissolved in 10 mL dichloromethane. These vials were heated in an oven at 125° C. for 24 hours. To remove any residues of the dichloromethane solvent, all vials were dried at high vacuum (0.5 mmHg) for 2 hours at room temperature.
The biofilm was assessed as described in Example 2.
It is possible in the example of the copolymer of C and D that bacteria are killed in addition to the inhibition of biofilm formation. Similar results were obtained in a static biofilm model where S. epidermis bacteria were incubated over a time period of 5 hours.

marine bacteria [2] = test: Coated stainless steel, MPN viable counts of desorbed bacteria; conditions: 14 days at 20° C., median values vs no coating
Description: (§1) Biological testing of coated stainless steel substrates were performed in a static cultures of marine bacteria. The biofilm prevention efficiencies of the coatings were recorded as a) total enumeration of bacteria attached on the steel surfaces and b) most-probable number (MPN) viability testing of attached bacteria. The nature of the thiophenes (expecting to inhibit biofilm generation without being toxic to the bacteria) should account for inhibition of both total counts and viability counts when thiophene-coated surfaces were compared to non-treated controls.
(§2) Three samples of stainless steel substrates were prepared as described above, each of these in triplicate. […]
(§3) At the end of the experimental period (14 days) the steel surfaces were removed from the media and carefully washed in sterile and particle-free (filtered through […] sterile filters) seawater. […] Desorbed concentrations of bacteria were recorded by epifluorescence microscopy and by MPN-counts in MB medium.
(§4) For epifluorescence microscopy 10 ml desorbed samples were stained with 2 μg 3′5-diamino phenylindol (DAPI) and incubated for 5-10 minutes. The stained samples were filtered through 0.2 μm black polycarbonate filters and analysed in a fluorescence microscope at 1250× magnification. […] The plates were incubated at 20° C. for 5 days and positive growth recorded as turbidity in the wells. […]

marine bacteria [3] = test: Coated stainless steel, total counts of desorbed bacteria by epifluorescence microscopy; conditions: 14 days at 20° C., median values vs no coating
Description: as §1, §2, §3, §4

[4] = system: Vibrio harveyi BB170 (AI-2 reporter); test: Bioluminescence assay of AI-2 quorum-sensing; conditions: compared with the corresponding furanone compound
Description: (§5) The effect of (Z)-5-(bromomethylene) thiophen-2(5H)-one on AI-1 and AI-2 quorum-sensing by bacteria was tested in a bioluminescence assay as follows:
(§6) Inhibition of quorum sensing was assessed as the ability of the furanone to reduce bioluminescence induced by cell free bacterial culture supernatant containing either AI-1 or AI-2 signal molecules. Vibrio harveyi BB886 was used as an AI-1 reporter and Vibrio harveyi BB170 was used as reporter of AI-2 communication.

E. faecalis = test: Static biofilm model, safranine staining; conditions: 4 h incubation
Description: (§7) According to the static biofilm model, a given thiophenone 200 μmol/L was dissolved in 500 μl absolute ethanol and applied to wells of a standard 24 well microtiter plate. The ethanol was evaporated from the wells in a laminar air sterile work bench at room temperature so as to leave a coating of the thiophenone in the well. A sample of bacteria was then added to the well and incubated for a given period of time. After incubation, the percentage of bacteria remaining was assessed by safranine staining of the biofilm. Bound safranine was released by acetic acid and optical density was measured in Synergy HT Multi-Detection Microplate Reader and compared to a control.

V. harveyi [5] = test: Static biofilm model, safranine staining; conditions: 4 h incubation
Description: as §7

S. epidermidis [6] = test: Static biofilm model, safranine staining; conditions: 6 h incubation, thiophenone 200 μmol/L coating
Description: as §7

Pseudoalteromonas = test: Static biofilm model, safranine staining; conditions: 4 h incubation
Description: as §7

[7] = system: Vibrio harveyi BB886 (AI-1 reporter); test: Bioluminescence assay of AI-1 quorum-sensing; conditions: compared with the corresponding furanone compound
Description: as §5, §6

V. harveyi [8] = test: Shaking biofilm model (200 rpm), safranine staining
Description: as §7
(§8) According to the shaking biofilm model, the microtiter plates were shaken (200 rpm) in a Minitron Incubator Shaker during biofilm formation.

S. epidermidis [9] = test: as above; conditions: Staphylococcus epidermidis, S. epidermidis, read-out: Shaking biofilm model % Remaining
Description: as §7, §8

SMILES	Static biofilm model % Remaining (S. epidermidis [1]) [%]	Inhibition of viable attached bacteria (marine bacteria [2]) [%]	Inhibition of biofilm attachment (total counts) (marine bacteria [3]) [%]	Inhibition of AI-2 quorum-sensing [4]	Static biofilm model % Remaining (E. faecalis; coating) [%]	Static biofilm model % Remaining (E. faecalis; in medium) [%]	Static biofilm model % Remaining (V. harveyi [5]; coating) [%]	Static biofilm model % Remaining (V. harveyi [5]; in medium) [%]	Static biofilm model % Remaining (S. epidermidis [6]) [%]	Static biofilm model % Remaining (Pseudoalteromonas; coating) [%]	Static biofilm model % Remaining (Pseudoalteromonas; in medium) [%]	Inhibition of AI-1 quorum-sensing [7]	Shaking biofilm model % Remaining (V. harveyi [8]; 8 h incubation) [%]	Shaking biofilm model % Remaining (V. harveyi [8]; 18 h incubation) [%]	activity at 200 µM (S. epidermidis [9]; 6 h incubation) [%]	activity at 200 µM (S. epidermidis [9]; 20 h incubation) [%]
CCO[Si](CCCNC(=O)OCC1=C/C(=C/Br)SC1=O)(OCC)OCC [Compound F, (Z)-(5-bromomethylene-2-oxo-2,5-dihydrothiopen-3-yl)methyl 3-(triethoxysilyl)propylcarbamate]	45	> 99	~80													
O=C1C=C/C(=C/Br)S1 [Thio101, (Z)-5-(bromomethylene) thiophen-2(5H)-one]				considerably more effective	66	32	20	9	28	52	36	considerably more effective	54	56	13	15
